The values that follow come from PMC7681098 (Theranostics, 2021).

One test relates to MOLM13. Put plainly: Cell proliferation MTT assay. The class given is cell-based. The following applies: Homo sapiens, MOLM-13, 72 h, read-out: Human leukemia cell line IC50 MOLM13. As for the experimental part: (§1) The conditional medium (CM) was prepared from the supernatant of HS-5 cell culture for 5 days under normal culture conditions. At the indicated time point, cell viability was evaluated by MTT assay.
A general note: Tetrazolium assays rely on reduction of a dye to a coloured formazan, in cell work by metabolically active cells.

Another test relates to MV4-11. Nature of the test: Cell proliferation MTT assay. The class given is cell-based. As to conditions: Homo sapiens, 72 h, read-out: Human leukemia cell line IC50 MV4-11. The procedure:
as §1

The next test deals with THP-1. Put plainly: Cell proliferation MTT assay. The class given is cell-based. The following applies: Homo sapiens, 72 h, wild-type FLT3, read-out: Human leukemia cell line IC50 THP-1. As for the experimental part: as §1
The next test concerns U937. Nature of the test: Cell proliferation MTT assay. The class given is cell-based. The following applies: Homo sapiens, U-937, 72 h, wild-type FLT3, read-out: Human leukemia cell line IC50 U937. The procedure: as §1
Another test deals with MOLM13 cells. Nature of the test: Stroma-protecting model: proliferation in HS-5 conditional medium or normal medium. The class given is cell-based. As to conditions: Homo sapiens. As for the experimental part: At the indicated time point, cell viability was evaluated by MTT assay.
(A) Indicated FLT3 mutations were expressed in BaF3 cells respectively. […] The autophosphorylation level of FLT3 was visualized and compared by western blot analysis. […] The CM was prepared from HS-5 cell culture for 4 days under routine culture conditions, clarified by centrifugation, and used immediately. The CM was added to complete medium at a final concentration of 40%. Cell viabilities were measured by MTT assay. Data were shown as mean±SD. […] The FLT3 phosphorylation levels of FLT3, STAT5 and ERK 1/2 were determined by Western blot.
On the other hand, the bone marrow stroma-protecting environment containing a number of cytokines (e.g. FLT3 ligand, stromal derived factor-1, etc) could also decrease the drug efficacy of FLT3 inhibitors by activating FLT3 or its downstream effectors and building cross-talk between leukemic blasts and bone marrow microenvironment, [35].

A further test has as its target T1, ERK1 (Homo sapiens, UniProt P27361).
T1 construct: purchased Reaction Biology Corporation (PA, USA)
Put plainly: Kinase inhibition assay (Reaction Biology). The class given is biochemical. As to conditions: 10 μM ATP, 10-dose IC50 mode.

Test [1] concerns BaF3 cells with FLT3-D835Y. Put plainly: Cell viability of transformed BaF3 cells. The class given is cell-based, murine. The following applies: Mus musculus, read-out: BaF3 cells with FLT3 mutants IC50 D835Y. As for the experimental part: (§2) Lentivirus packaging and construction of transformed BaF3 cells were performed as described previously. […] Supernatants were collected and used to infect BaF3 cells, and transduced BaF3 cells were selected with puromycin (1 μg/ml) to obtain stably transformed cells.
as §1

Test [2] has as its system BaF3 cells with FLT3-ITD/D835Y. Nature of the test: Cell viability of transformed BaF3 cells. It counts as cell-based, murine. As to conditions: Mus musculus, BaF3; cell viability; read-out: BaF3 cells with FLT3 mutants IC50 ITD-D835Y. As for the experimental part: as §2, §1
The test system of test [3] is BaF3 cells with FLT3-ITD/F691L. Put plainly: Cell viability of transformed BaF3 cells. The class given is cell-based, murine. The following applies: Mus musculus, read-out: BaF3 cells with FLT3 mutants IC50 ITD-F691L. The procedure: as §2, §1
Test [4] deals with BaF3 cells with FLT3-ITD/N676D. Nature of the test: Cell viability of transformed BaF3 cells. The class given is cell-based, murine. As to conditions: Mus musculus, read-out: BaF3 cells with FLT3 mutants IC50 ITD-N676D. The procedure:
as §2, §1

Test [5] deals with BaF3 cells with FLT3-ITD/Y842C. Put plainly: Cell viability of transformed BaF3 cells. The class given is cell-based, murine. The following applies: Mus musculus, read-out: BaF3 cells with FLT3 mutants IC50 ITD-Y842C. The procedure: as §2, §1
The next test concerns BaF3 cells with FLT3-ITD. Put plainly: Cell viability of transformed BaF3 cells. The following applies: Mus musculus, read-out: BaF3 cells with FLT3 mutants IC50 ITD. It counts as cell-based, murine. The procedure:
as §2, §1

The subject of another test is MV4-11 cells. Nature of the test: Bone marrow engrafted model, survival. The class given is in vivo, NOD-SCID mice. The following applies: MV4-11 bone marrow engraftment; LT-171-861 10 mg/kg every other day, sorafenib orally every day. The procedure:
Six-week-old female NOD-SCID mice were treated with sub-lethal dose radiation (1.8 Gy) before intravenous injection of MV4-11 cells (5×10^6) or MOLM13 cells (5×10^6).
Data were shown as mean±SD. […] Data were shown as mean±SD. (C) An engrafted tumor model was used to evaluate in vivo antitumor activity. The NOD/SCID mice were intravenously inoculated with MV4-11 cells. […] Log-rank testing was used to compare survival curves among treatment groups. […] (D) Apoptotic assays in engraft model were evaluated by TUNEL assay and cell proliferative activity was measured by Ki67 assay. Images were acquired at ×40 magnification. (E) BALB/c nude mice were subcutaneously inoculated with MV4-11 cells (5×10^6) and bodyweight of each mouse was recorded every other day. (F) Representative photo of tumors from BALB/c nude mice which were inoculated with MV4-11 cells. (G) BALB/c nude mice were subcutaneously inoculated with BaF3 cells bearing FLT3-ITD-N676D (n=6) and FLT3-ITD-F691L (n=6) respectively. […] (H) BALB/c mice were intravenously inoculated with cells used in (G). […] Log-rank testing was used to compare survival curves among treatment groups. […] (I) Representative photos of spleens dissected from mice in (H) inoculated with BaF3 cells bearing FLT-3-ITD-F691L.
Mice that received vehicle treatment died within 30 days after intravenous injection of MV4-11 cells.

Where two headings read alike, the source gives them in different places.

T1 sequence (P27361 whole entry): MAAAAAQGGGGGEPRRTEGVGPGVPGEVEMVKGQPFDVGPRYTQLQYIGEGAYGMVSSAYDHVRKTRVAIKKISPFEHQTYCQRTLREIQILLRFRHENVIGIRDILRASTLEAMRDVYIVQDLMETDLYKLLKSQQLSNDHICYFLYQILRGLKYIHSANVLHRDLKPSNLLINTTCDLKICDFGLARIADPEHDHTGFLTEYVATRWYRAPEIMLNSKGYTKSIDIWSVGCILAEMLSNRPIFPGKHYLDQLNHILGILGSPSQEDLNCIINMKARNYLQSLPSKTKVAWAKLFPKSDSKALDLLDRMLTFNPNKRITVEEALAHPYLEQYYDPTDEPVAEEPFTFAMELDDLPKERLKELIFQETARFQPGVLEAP

For the molecule `CC(C)(C)c1cc(NC(=O)Nc2ccc(-c3cn4c(n3)sc3cc(OCCN5CCOCC5)ccc34)cc2)no1` [AC220], the IC50 with MOLM13 is 0.0012 µM; in the test on MV4-11, 0.0015 µM; in the test with THP-1, above 1 µM; with U937, above 1 µM; in the test on MOLM13 cells (MOLM-13, 72 h, read-out: IC50 proliferation of MOLM13 cells in CM), 0.116 µM; with MOLM13 cells (MOLM-13, 72 h, read-out: IC50 proliferation of MOLM13 cells in NM), 0.0141 µM.

`O=C(Nc1ccc2[nH]nc(-c3ccncc3)c2c1)[C@@H]1CCN(CC(=O)N2CCN(c3ccc(-c4ncccn4)cc3)CC2)C1` [SCH772984, reference compound] had an IC50 on ERK1 of 0.0049 µM.

For the molecule `CNC(=O)c1cc(Oc2ccc(NC(=O)Nc3ccc(Cl)c(C(F)(F)F)c3)cc2)ccn1` [Sorafenib, reference compound], the IC50 in the test with MOLM13 is 0.0053 µM; in the test with MV4-11, 0.0032 µM; in the test with THP-1, above 1 µM; with U937 it was above 1 µM; in test [1], 0.235 µM; in test [2] it was 0.878 µM. The IC50 in test [3] worked out at 0.0452 µM; in test [4], 0.103 µM; in test [5] it was 0.347 µM; in the test on BaF3 cells with FLT3-ITD it was 0.0132 µM; in the test on MOLM13 cells (MOLM-13, HS-5 conditional medium (CM) 40%, 72 h, MTT, read-out: IC50 proliferation of MOLM13 cells in CM), 1.46 µM; with MOLM13 cells (MOLM-13, normal medium (NM), 72 h, MTT, read-out: IC50 proliferation of MOLM13 cells in NM), 0.0113 µM. For the same molecule, in the test with MV4-11 cells, the survival versus vehicle entry is “increased survival rates”.
